Measured values published in paper PMC12209456, “Serine/threonine/tyrosine kinase 1 drives pancreatic carcinogenesis via GSK3β sequestration-mediated Wnt/β-catenin pathway hyperactivation” (Signal Transduction and Targeted Therapy, 2025).
Where a name gives a salt, the structure may show the parent alone.

Columns and labels:
[1] = test system: STYK1 Y191 phosphorylation by BLK kinase; assay: STYK1 tyrosine phosphorylation by BLK (IP-Western / in vitro kinase assay); assay type: biochemical; settings: HEK293T cells, BLK overexpression; GST-STYK1 ICD and HA-BLK kinase reactions
Protocol: (§1) Whole-cell extracts were prepared with 1% sodium dodecyl sulfate lysis buffer with freshly added 1% proteinase inhibitor cocktail (Biomake, B14001) and 1 mM phenylmethylsulfonyl fluoride (PMSF, MCE, HY-B0496). Western blot was performed as described previously.[20] The following primary antibodies were used: anti-phospho-β-catenin (Ser33/37/Thr41) (9561, Cell Signaling Technology), anti-β-catenin (51067-2-AP, Proteintech), anti-β-TrCP (4394, Cell Signaling Technology), anti-Non-phospho (Active) β-catenin (Ser33/37/Thr41) (8814, Cell Signaling Technology), anti-STYK1 (862318, zenbio), anti-C-myc (10828-1-AP, Proteintech), anti-CyclinD1 (60186-1-Ig, Proteintech), anti-Axin2 (20540-1-AP, Proteintech), anti-mouse HA (M180-3, EMD Millipore), anti-Rabbit HA (51064-2-AP, Proteintech), anti-mouse […] (M185, MBL), anti-Rabbit […] […]
GST affinity-isolation assay was performed as described previously.[18] […] Surface plasmon resonance analysis (Biacore T200) quantified binding kinetics between GST-β-catenin/GSK3β and synthetic α-helical peptides, with dissociation constants calculated via BIA evaluation software.

[2] = test system: β-catenin/TCF4 transcriptional activity; assay: 7TGC reporter assay; assay type: cell-based, human; settings: PANC-1 cells, EGF (100 ng/mL) or CQ (100 μM)
From the text: The PCR products of STYK1, GSK3β, and Axin1 were cloned into pcDNA3.1-3×HA, pCMV-3×Flag (Sigma, E4401), and pCMV-mCherry (constructed by our lab) respectively. […] To make STYK1, β-catenin, GSK3β, or BLK mutants or truncations, a series of forwarding primers harboring the desired mutations were used in PCRs. The nucleotide sequences of all constructs were confirmed by DNA sequencing. […] DNA and interference RNA were transfected with Lipofectamine 3000 (Invitrogen, L3000015) according to the manufacturer’s instructions. shRNA for STYK1 #1: 5ʹ- [sequence] -3ʹ. #2: 5ʹ- [sequence] -3ʹ. siRNA for STYK1 was 5ʹ- [sequence] -3ʹ. siRNA for β-catenin was 5ʹ- [sequence] -3ʹ. siRNA for HRS was 5ʹ- [sequence] -3ʹ, siRNA for VPS24 was 5ʹ- [sequence] -3ʹ.

CyclinD1/Axin2/C-myc = assay: Wnt target gene expression (western blot, qRT-PCR); assay type: cell-based, human; settings: PANC-1 cells, EGF (100 ng/mL) or CQ (100 μM)
Protocol: Whole-cell extracts were prepared with 1% sodium dodecyl sulfate lysis buffer with freshly added 1% proteinase inhibitor cocktail (Biomake, B14001) and 1 mM phenylmethylsulfonyl fluoride (PMSF, MCE, HY-B0496). Western blot was performed as described previously.[20]
Total RNA was extracted from cultured pancreatic cancer cells using Trizol reagent (Invitrogen) according to the manufacturer’s protocol. qRT-PCR was performed as previously described.^3 The mRNA expression level for each sample was normalized to the expression of GAPDH using the 2 ^-ΔΔct method^4 with three biological replicates of comparative qRT-PCR. The following primer sequences were used for qRT-PCR: GAPDH, (forward) 5′- […] -3′ and (reverse) 5′- […] -3′; CyclinD1, (forward) 5′- […] -3′ and (reverse) 5′- […] -3′; C-myc, (forward) 5′- […] -3′ and (reverse) 5′- […] -3′; Axin2, (forward) 5′- […] -3′ and (reverse) 5′- […] -3′; STYK1, (forward) 5′- […] -3′ and (reverse) 5′- […] -3′. Amplification was performed in an ABI Q3 real-time PCR system using a SYBR Green master mix (YEASEN, 11201ES08).

Wnt/β-catenin signaling = assay: STYK1-mediated Wnt/β-catenin signaling, PANC-1 cells; assay type: cell-based, human
Protocol: as §1

p62 and LC3 = assay: Autophagic flux markers p62 and LC3, PANC-1 cells (western blot); assay type: cell-based, human
Protocol: as §1

[3] = test system: Wnt/β-catenin signaling in colorectal cancer; settings: cited from earlier work
From the text: Continuously activated Wnt/β-catenin signaling via genetic or epigenetic ways, serves as a potent oncogenic driver across malignancies, spurring intensive efforts to develop targeted inhibitors. Nonetheless, tissue homeostasis and regeneration could be impaired upon the blockade of Wnt signaling, which needs to be resolved and limits Wnt-based therapies. Recent breakthroughs have unmasked tumor-specific vulnerabilities, identifying cancer-cell-restricted regulators that fine-tune Wnt signaling outputs, offering promising avenues for selectively crippling oncogenic Wnt activity.[59] For example ...

PANC-1 xenograft = PANC-1 xenograft in nude mice; assay type: in vivo, mouse
Protocol: PANC-1 xenograft tumors were further established in nude mice via subcutaneous hindlimb injection (Fig. 8e). 25 mg/kg STYK1-driving peptides were intraperitoneally injected twice a week after the subcutaneous tumor formed.
(2) Mouse subcutaneous xenograft experiments were carried out as previously described.[25] Female BALB/c nude mice (4-week-old, 18–22 g) were sourced from Hunan SJA Laboratory Animal (Cat: hnslkjd006; Changsha, China) and housed under SPF conditions with routine health surveillance.

## CN1CCN(CCOc2cc(OC3CCOCC3)c3c(Nc4c(Cl)ccc5c4OCO5)ncnc3c2)CC1 [saracatinib]
[1]
  BLK-mediated phosphorylation of STYK1 Y191: saracatinib inhibition

## CCN(CC)CCCC(C)Nc1ccnc2cc(Cl)ccc12 (stereo not shown) [CQ, chloroquine diphosphate salt]
[2]
  Wnt signaling in the 7TGC system: decreased Wnt signaling in the 7TGC system
CyclinD1/Axin2/C-myc
  STYK1-mediated alteration of the Wnt/β-catenin target genes C-myc, Axin2: down-regulated STYK1-mediated alteration of the Wnt/β-catenin target genes C-myc, Axin2

## O=C(N/N=C/c1ccc(O)c(O)c1)c1cc2ccccc2cc1O [dynasore]
Wnt/β-catenin signaling
  STYK1-mediated activation of Wnt/β-catenin signaling: significantly blocked STYK1-mediated activation of Wnt/β-catenin signaling
p62 and LC3
  level of LC3: decreased
  level of p62: increased

## C/C=C/[C@H]1O[C@@](O)([C@@H](C)[C@H](O)[C@H](C)[C@H]2OC(=O)/C(OC)=C/C(C)=C/[C@@H](C)[C@@H](O)[C@@H](CC)[C@@H](O)[C@H](C)C/C(C)=C/C=C/[C@@H]2OC)C[C@@H](O)[C@@H]1C [concanamycin]
[3]
  inhibition of Wnt/β-catenin signaling: marked inhibition of Wnt/β-catenin signaling in colorectal cancer

## bafilomycin
[3]
  inhibition of Wnt/β-catenin signaling: marked inhibition of Wnt/β-catenin signaling in colorectal cancer

## Oc1nc(-c2ccc(C(F)(F)F)cc2)nc2c1CSCC2 [XAV939]
PANC-1 xenograft; BALB/c nude mice, PANC-1 xenografts, biweekly intraperitoneal, synthetic peptides (25 mg/kg)
  tumor growth (methods statement): reduced tumor growth
PANC-1 xenograft; PANC-1 xenografts with STYK1 WT or mutants, nude mice, n = 3
  STYK1-mediated xenograft tumor growth: suppressed STYK1-mediated xenograft tumor growth, including mutant variants
